According to publication PMC7915026, “Sulfaguanidine Hybrid with Some New Pyridine-2-One Derivatives: Design, Synthesis, and Antimicrobial Activity against Multidrug-Resistant Bacteria as Dual DNA Gyrase and DHFR Inhibitors” (Antibiotics, 2021):
In brackets after ≈: the same amount, converted by molar mass. Read-outs that look alike come from different tables or passages of the source.

Legend:
[1] = tested on: C. albicans (ATCC 10231); test: Inhibition zone, paper disk/agar diffusion; assay type: cell-based; conditions: Na = no activity
How it was run: (§1)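 Activity was tested by the agar plate diffusion method. The read-out is the diameter (mm) of the inhibition zone around each tested derivative, with norfloxacin as the positive control.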

[2] = tested on: E. coli ATCC 25922; test: Inhibition zone, paper disk/agar diffusion; assay type: cell-based; conditions: E. coli; Na = no activity
How it was run: as §1

[3] = tested on: E. faecalis ATCC 29212; test: Inhibition zone, paper disk/agar diffusion; assay type: cell-based; conditions: E. faecalis; Na = no activity
How it was run: as §1

[4] = tested on: F. oxysporum (RCMB 008002); test: Inhibition zone, paper disk/agar diffusion; assay type: cell-based; conditions: Na = no activity
How it was run: as §1

[5] = tested on: P. aeruginosa ATCC 27853; test: Inhibition zone, paper disk/agar diffusion; assay type: cell-based; conditions: P. aeruginosa; Na = no activity
How it was run: as §1

[6] = tested on: S. aureus ATCC 29213; test: Inhibition zone, paper disk/agar diffusion; assay type: cell-based; conditions: S. aureus; Na = no activity
How it was run: as §1

[7] = tested on: S. typhi ATCC 6539; test: Inhibition zone, paper disk/agar diffusion; assay type: cell-based; conditions: S. typhi; Na = no activity
How it was run: as §1

[8] = tested on: B. subtilis ATCC 6633; test: MIC and MBC determination; assay type: cell-based; conditions: B. subtilis
[9] = tested on: S. aureus ATCC 29213; test: MIC and MBC determination; assay type: cell-based; conditions: S. aureus
[10] = tested on: E. faecalis ATCC 29212; test: MIC and MBC determination; assay type: cell-based; conditions: Enterococcus faecalis, ATCC29212, E. faecalis
[11] = tested on: Salmonella typhi (S. typhi ATCC 6539); test: microbe, parasite or virus in culture; assay type: cell-based; conditions: Salmonella enterica, Salmonella typhi
[12] = tested on: C. albicans (ATCC 10231); test: MIC and MFC determination; assay type: cell-based
[13] = tested on: F. oxysporum (RCMB 008002); test: MIC and MFC determination; assay type: cell-based
[14] = tested on: E. coli ATCC BAA-196; test: Inhibition zone against multidrug-resistant bacteria; assay type: cell-based; conditions: MDRB E. coli ATCC BAA-196
How it was run: as §1

[15] = tested on: P. aeruginosa ATCC BAA-2111; test: as above; assay type: cell-based; conditions: MDRB P. aeruginosa ATCC BAA-2111
How it was run: as §1

[16] = tested on: S. aureus ATCC 33591; test: as above; assay type: cell-based; conditions: MDRB S. aureus ATCC 33591
How it was run: as §1

[17] = tested on: S. aureus ATCC 43300; test: as above; assay type: cell-based; conditions: MDRB S. aureus ATCC 43300
How it was run: as §1

[18] = tested on: E. coli ATCC BAA-196; test: MIC and MBC against multidrug-resistant strains; assay type: cell-based; conditions: E. coli ATCC BAA-196
Text: (§2) Norfloxacin was used as a positive control for the multidrug resistance study.
(§3) The experiment was repeating for three-times.

[19] = tested on: P. aeruginosa ATCC BAA-2111; test: MIC and MBC against multidrug-resistant strains; assay type: cell-based; conditions: P. aeruginosa ATCC BAA-2111
Text: as §2, §3

[20] = tested on: S. aureus ATCC 33591; test: MIC and MBC against multidrug-resistant strains; assay type: cell-based; conditions: Staphylococcus aureus, ATCC33591, S. aureus ATCC 33591
Text: as §2, §3

[21] = tested on: S. aureus ATCC 43300; test: MIC and MBC against multidrug-resistant strains; assay type: cell-based; conditions: Staphylococcus aureus, ATCC43300, S. aureus ATCC 43300
Text: as §2, §3

[22] = molecular target: S. aureus DNA gyrase (Staphylococcus aureus, UniProt P0A0K8+P20831); test: In vitro DNA gyrase supercoiling enzymatic assay; assay type: biochemical
S. aureus DNA gyrase, sequence (P20831 whole entry): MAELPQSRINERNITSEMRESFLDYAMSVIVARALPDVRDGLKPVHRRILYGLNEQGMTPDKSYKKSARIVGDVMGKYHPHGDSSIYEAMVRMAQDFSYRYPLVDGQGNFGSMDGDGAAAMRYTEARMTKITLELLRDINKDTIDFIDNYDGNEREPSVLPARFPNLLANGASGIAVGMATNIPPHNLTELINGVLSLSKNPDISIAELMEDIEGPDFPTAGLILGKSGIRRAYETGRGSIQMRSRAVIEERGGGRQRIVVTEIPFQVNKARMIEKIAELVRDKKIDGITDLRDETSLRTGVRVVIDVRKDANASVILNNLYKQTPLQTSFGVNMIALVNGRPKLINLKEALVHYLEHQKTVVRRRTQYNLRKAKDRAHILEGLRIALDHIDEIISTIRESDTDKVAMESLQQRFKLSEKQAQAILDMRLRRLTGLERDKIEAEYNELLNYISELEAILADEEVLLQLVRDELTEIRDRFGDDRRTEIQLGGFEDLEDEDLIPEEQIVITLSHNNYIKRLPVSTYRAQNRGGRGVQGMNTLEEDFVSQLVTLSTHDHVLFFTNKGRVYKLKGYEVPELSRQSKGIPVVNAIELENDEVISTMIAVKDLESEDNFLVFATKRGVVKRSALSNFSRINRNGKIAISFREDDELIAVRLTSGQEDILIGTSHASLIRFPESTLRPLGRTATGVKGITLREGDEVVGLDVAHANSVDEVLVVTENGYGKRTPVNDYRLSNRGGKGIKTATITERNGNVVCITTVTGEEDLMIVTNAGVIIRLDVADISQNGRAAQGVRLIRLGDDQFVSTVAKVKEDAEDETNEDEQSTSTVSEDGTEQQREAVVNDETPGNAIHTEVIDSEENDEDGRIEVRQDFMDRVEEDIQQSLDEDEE
S. aureus DNA gyrase, sequence (P0A0K8 whole entry): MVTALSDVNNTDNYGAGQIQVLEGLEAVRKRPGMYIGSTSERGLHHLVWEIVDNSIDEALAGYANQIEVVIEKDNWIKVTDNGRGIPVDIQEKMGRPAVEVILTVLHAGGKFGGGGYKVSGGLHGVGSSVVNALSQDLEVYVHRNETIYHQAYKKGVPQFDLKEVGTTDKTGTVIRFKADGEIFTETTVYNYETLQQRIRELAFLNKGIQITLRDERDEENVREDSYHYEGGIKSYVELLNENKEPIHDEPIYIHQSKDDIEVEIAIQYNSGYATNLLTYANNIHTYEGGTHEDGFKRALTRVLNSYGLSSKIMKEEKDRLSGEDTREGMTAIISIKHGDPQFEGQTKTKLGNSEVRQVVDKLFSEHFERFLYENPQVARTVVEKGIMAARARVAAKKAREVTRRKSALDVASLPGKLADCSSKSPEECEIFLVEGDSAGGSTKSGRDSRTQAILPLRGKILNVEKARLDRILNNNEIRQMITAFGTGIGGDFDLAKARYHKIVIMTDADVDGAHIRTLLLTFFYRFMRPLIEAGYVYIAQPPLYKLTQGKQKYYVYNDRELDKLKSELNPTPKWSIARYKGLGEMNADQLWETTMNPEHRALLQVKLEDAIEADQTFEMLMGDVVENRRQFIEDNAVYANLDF

[23] = molecular target: E. coli DHFR (dihydrofolate reductase) (Escherichia coli, UniProt P0ABQ4); test: In vitro DHFR enzymatic assay; assay type: biochemical
E. coli DHFR (dihydrofolate reductase), sequence (P0ABQ4 whole entry): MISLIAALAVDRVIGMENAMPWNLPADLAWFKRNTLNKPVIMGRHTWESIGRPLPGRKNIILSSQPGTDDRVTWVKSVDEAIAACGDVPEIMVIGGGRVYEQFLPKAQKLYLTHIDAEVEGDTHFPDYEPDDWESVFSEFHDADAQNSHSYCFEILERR

[24] = tested on: neutrophils; test: In vitro intracellular killing, nitro blue tetrazolium (NBT) reduction assay; assay type: cell-based
Procedure: One of the broad methods used for determining immune disorders for patients in hospitals is the NBT test to measure their immune responses. The reduction in NBT dye provides information about the phagocytic and intracellular killing functions of neutrophils, which are important for microbiocidal activity. The most promising derivatives (2a, 2b, 2d, 3a, 8, and 11) were evaluated against in vitro intracellular killing activities using a nitro blue tetrazolium (NBT) reduction assay and the obtained results expressed in percentage (%): increasing the percentage led to an improvement in the killing ability of the neutrophils used as innate immunity.
In vitro intracellular killing activities for the most promising six derivatives 2a, 2b, 2d, 3a, 8, and 11 were performed according to reported methods.

[25] = tested on: spleen and thymus; test: In vivo immunomodulation: immune organ weight and indexes; set-up: Spleen index: unit not given here; conditions: mice
Text: Both the spleen and thymus have important antibacterial and fungal immune organ responses, and any change in weight, and indexes can reflect the level of immune regulation. Additionally, the relative spleen and thymus indexes are important indices for nonspecific immunity and potential immunomodulatory compounds that increase the spleen and thymus weight. This increase is due to immune cells’ stimulation in the spleen and thymus. […]

[26] = tested on: CD4+ and CD8+ T lymphocytes; test: In vivo T lymphocyte subsets from peripheral blood, flow cytometry; conditions: mice

## COc1ccc(/C=C(\C#N)C(=O)Nc2ccc(S(=O)(=O)NC(=N)N)cc2)cc1O [Compound 2d, N-(4-(N-Carbamimidoylsulfamoyl)phenyl)-2-cyano-3-(3-hydroxy-4-methoxyphenyl) acryl-amide]
[1]
  Mean Diameter of the Inhibition Zone: 27 ± 0.50 mm
[2]
  Mean Diameter of the Inhibition Zone: 30 ± 0.29 mm
[3]
  Mean Diameter of the Inhibition Zone: 29 ± 0.17 mm
[4]
  Mean Diameter of the Inhibition Zone: 22 ± 0.11 mm
[5]
  Mean Diameter of the Inhibition Zone: 27 ± 0.73 mm
[6]
  Mean Diameter of the Inhibition Zone: 33 ± 0.53 mm
[7]
  Mean Diameter of the Inhibition Zone: 29 ± 0.20 mm
[8]
  MBC: 9.38 ± 0.96 µM (≈ 3.9 µg/mL)
  MIC: 4.69 ± 0.98 µM (≈ 1.95 µg/mL)
[8]; Bacillus subtilis, ATCC6633, read-out: MBC
  MBC: 9.38 µM (≈ 3.9 µg/mL)
[8]; Bacillus subtilis, ATCC6633, read-out: MIC
  MIC: 4.69 µM (≈ 1.95 µg/mL)
[9]
  MBC: 13.40 ± 0.54 µM (≈ 5.57 µg/mL)
  MIC: 13.40 ± 0.98 µM (≈ 5.57 µg/mL)
[9]; Staphylococcus aureus, ATCC29213, read-out: MBC
  MBC: 13.4 µM (≈ 5.57 µg/mL)
[9]; Staphylococcus aureus, ATCC29213, read-out: MIC
  MIC: 13.4 µM (≈ 5.57 µg/mL)
[10]; read-out: MBC
  MBC: 15.9 ± 0.58 µM (≈ 6.63 µg/mL)
[10]; read-out: MIC
  MIC: 9.38 ± 0.24 µM (≈ 3.9 µg/mL)
[11]; read-out: MBC
  MBC: 30.1 ± 0.75 µM (≈ 12.5 µg/mL)
[11]; read-out: MIC
  MIC: 18.8 ± 0.85 µM (≈ 7.81 µg/mL)
[12]
  MFC: 37.60 ± 0.38 µM (≈ 15.6 µg/mL)
  MFC/MIC: <2
  MIC: 18.80 ± 0.65 µM (≈ 7.81 µg/mL)
[12]; Candida albicans, ATCC10231, read-out: MFC
  MFC: 37.6 µM (≈ 15.6 µg/mL)
[12]; Candida albicans, ATCC10231, read-out: MIC
  MIC: 18.8 µM (≈ 7.81 µg/mL)
[13]
  MFC: 66.84 ± 0.85 µM (≈ 27.8 µg/mL)
  MFC/MIC: <2
  MIC: 37.60 ± 0.25 µM (≈ 15.6 µg/mL)
[13]; Fusarium oxysporum, RCMB008002, read-out: MFC
  MFC: 66.8 µM (≈ 27.8 µg/mL)
[13]; Fusarium oxysporum, RCMB008002, read-out: MIC
  MIC: 37.6 µM (≈ 15.6 µg/mL)
[14]
  Mean Diameter of Inhibition Zone: 25 ± 0.86 mm
[15]
  Mean Diameter of Inhibition Zone: 26 ± 0.41 mm
[16]
  Mean Diameter of Inhibition Zone: 24 ± 0.32 mm
[17]
  Mean Diameter of Inhibition Zone: 27 ± 0.3 mm
[18]
  MBC: 9.38 ± 0.54 µM (≈ 3.9 µg/mL)
  MIC: 4.69 ± 0.36 µM (≈ 1.95 µg/mL)
[18]; Escherichia coli, ATCCBAA196, read-out: MBC
  MBC: 9.38 µM (≈ 3.9 µg/mL)
[18]; Escherichia coli, ATCCBAA196, read-out: MIC
  MIC: 4.69 µM (≈ 1.95 µg/mL)
[19]
  MBC: 18.77 ± 0.61 µM (≈ 7.8 µg/mL)
  MIC: 9.38 ± 0.49 µM (≈ 3.9 µg/mL)
[19]; Pseudomonas aeruginosa, ATCCBAA2111, read-out: MBC
  MBC: 18.8 µM (≈ 7.8 µg/mL)
[19]; Pseudomonas aeruginosa, ATCCBAA2111, read-out: MIC
  MIC: 9.38 µM (≈ 3.9 µg/mL)
[20]; read-out: MBC
  MBC: 18.8 ± 0.25 µM (≈ 7.8 µg/mL)
[20]; read-out: MIC
  MIC: 9.38 ± 0.32 µM (≈ 3.9 µg/mL)
[21]; read-out: MBC
  MBC: 9.38 ± 0.41 µM (≈ 3.9 µg/mL)
[21]; read-out: MIC
  MIC: 4.69 ± 0.25 µM (≈ 1.95 µg/mL)
[22]
  IC50: 18.2 ± 1.18 µM
[23]
  IC50: 4.33 ± 0.18 µM
[23]; E. coli DHFR IC50
  fold relative to trimethoprim: 1.19 fold
[24]
  Intracellular Killing Activity: 142.4 ± 0.98%
[25]
  Spleen index: 0.018 ± 0.00
  Spleen weight: 250 ± 0.03 mg
  Thymus index: 0.532 ± 0.06 mg/g
  Thymus weight: 15.56 ± 0.54 mg
[26]
  T cells CD4+: 79.61 ± 0.3%
  T cells CD8+: 27.05 ± 0.5%
